Patent US8148424B2, “Tocopherols, tocotrienols, other chroman and side chain derivatives and uses thereof” (Research Development Foundation, priority 1998, dated 2012)
≈ marks a conversion by molar mass, not a printed value. Like-named read-outs stand apart in the source and are kept apart here. One block for each compound: values may come before it.

Columns and labels:
[1] = test system: MDA-MB-435; test: Bioassay for apoptosis (apoptotic EC50); format: cell-based, human
Procedure: (§1) Cells were cultured at 1.5×10^5 cells/well in 12 well plates. Cells were allowed to adhere overnight, then incubated with novel test compounds at 0.01, 0.1, 1, 5, 10 & 20 μg/mL for 1, 2 and 3 days. After treatment, cells (floating+trypsin released adherent cells) were pelleted, washed and stained with 2 μg/ml DAPI (4′,6-diamidine-2′-phenylindole dihydrochloride) in 100% methanol for 15 minutes at 37° C. and/or 3′-OH ends resulting from DNA fragmentation were detected with the TUNEL (terminal deoxynucleotidyl transferase-mediated dUTP-X 3′ nick end-labeling) technique, and then viewed using a Zeiss ICM 405 microscope. Cells whose nucleus contained clearly condensed or fragmented chromatin or stained for fragmented DNA in the TUNEL assay were scored as apoptotic. Data are presented as percent cells undergoing apoptosis.

[2] = test system: breast tumor cell line MDA-MB-435; test: Bioassay for DNA synthesis arrest, naturally occurring vitamin E compounds; format: cell-based, human; conditions: Table 1
Procedure: Table 1 provides tumor growth inhibitory properties of naturally occurring vitamin E compounds against the breast tumor cell line MDA-MB-435.
To assay DNA synthesis, all cells were used at 2.5×10^5/ml. Cells were treated with each of the compounds at concentrations of 0.01, 0.1, 1, 5, 10 and 20 μg/mL and 200 μl of each treatment group were plated in quadruplicate in a 96 well culture plate (Corning, Corning N.Y.). Experiments were done in duplicate, one plate used for viability testing and the other plate for examination of ^3H-TdR uptake to monitor DNA synthesis. Plates were cultured for 48 hours at 37° C., 5% CO2. Eight hours prior to the end of incubation, ^3H-TdR was added to one of the duplicate plates and incubation continued for 8 hours.
The cells were then harvested (trypsinization was required to harvest adherent cells), and isotope uptake was determined as counts per minute (cpm). For viability studies, at the end of the incubation, the cells were removed from the wells and viability checked by the Trypan Blue Exclusion method. Percent viability and percent DNA synthesis in comparison to untreated or vehicle treated cells of each treatment group were calculated.

[3] = test system: A-549; test: Bioassay for apoptosis (apoptotic EC50); format: cell-based, human; conditions: Homo sapiens, A549, unit inferred
Procedure: as §1

[4] = test system: C-170; test: Bioassay for apoptosis (apoptotic EC50); format: cell-based, human; conditions: Homo sapiens, C170, C-170; unit inferred
Procedure: as §1

[5] = test system: HL-60; test: Bioassay for apoptosis (apoptotic EC50); format: cell-based, human; conditions: Homo sapiens, HL-60, HL-60; unit inferred
Procedure: as §1

[6] = test system: HT-29; test: Bioassay for apoptosis (apoptotic EC50); format: cell-based, human; conditions: Homo sapiens, unit inferred
Procedure: as §1

[7] = test system: Jurkat; test: Bioassay for apoptosis (apoptotic EC50); format: cell-based, human; conditions: Homo sapiens, unit inferred
Procedure: as §1

[8] = test system: LnCaP; test: Bioassay for apoptosis (apoptotic EC50); format: cell-based, human; conditions: Homo sapiens, unit inferred
Procedure: as §1

[9] = test system: MCF-7; test: Bioassay for apoptosis (apoptotic EC50); format: cell-based, human; conditions: Homo sapiens, MCF7, MCF-7; unit inferred
Procedure: as §1

[10] = test system: ME-180; test: Bioassay for apoptosis (apoptotic EC50); format: cell-based, human; conditions: Homo sapiens, ME-180, ME-180; unit inferred
Procedure: as §1

[11] = test system: MCF-10A; test: Bioassay for apoptosis (apoptotic EC50); format: cell-based; conditions: Homo sapiens, unit inferred
Procedure: as §1

[12] = test system: T47D; test: Bioassay for apoptosis (apoptotic EC50); format: cell-based; conditions: Homo sapiens, unit inferred
Procedure: as §1

[13] = test system: human cancer cells from a wide variety of cell lineages; test: Apoptosis induction in a battery of tumor cells; format: cell-based; conditions: breast, prostate, leukemia/lymphoid, cervical, ovarian, endometrial, colon, lung cell lines
Procedure: as §1

[14] = test system: PREC; test: Bioassay for apoptosis (apoptotic EC50); format: cell-based; conditions: Homo sapiens, unit inferred
Procedure: as §1

[15] = test system: MCF-7 cells; test: DNA synthesis arrest by 3H-uptake (Example 8); format: cell-based, human; conditions: 3H-uptake at one day treatment
Procedure: (§2) MDA-MB-435 and MCF-7 cells at 1.5×10^5/well in 12 well plates for apoptosis and 1.5×10^4/well in 96 well plates for DNA synthesis arrest were incubated overnight in culture media and treated with α-tocopherol, α-tocotrinel, compound 1, 6-0-carboxymethyl alpha-tocotrienol (6-0-CM-α-T, 44), and vitamin E succinate (VES) at different concentrations in experimental media (2% serum for MDA-MB-435 cells and 5% serum for MCF-7 cells). DNA synthesis arrest was determined by ^3H-uptake at one day treatment and apoptosis was detected by DAPI staining at three day treatment. EC50 was calculated as the dosage of test compounds that gave 50% growth inhibition.

[16] = test system: MDA-MB-435 cells; test: DNA synthesis arrest by 3H-uptake (Example 8); format: cell-based, human; conditions: for EC50: MDA-MB-435, 2% serum, 3H-uptake at one day treatment
Procedure: as §2

[17] = test system: MCF-7 cells; test: Apoptosis by DAPI staining (Example 8); format: cell-based, human; conditions: 5% serum, DAPI staining at three day treatment
Procedure: as §2

[18] = test system: MDA-MB-435 cells; test: Apoptosis by DAPI staining (Example 8); format: cell-based, human; conditions: for EC50: MDA-MB-435, 2% serum, DAPI staining at three day treatment
Procedure: as §2

[19] = test system: DLD-1; test: Bioassay for apoptosis (apoptotic EC50); format: cell-based, human; conditions: Homo sapiens, unit inferred
Procedure: as §1

[20] = test system: DU-145; test: Bioassay for apoptosis (apoptotic EC50); format: cell-based, human; conditions: Homo sapiens, unit inferred
Procedure: as §1

[21] = test system: PC-3; test: Bioassay for apoptosis (apoptotic EC50); format: cell-based, human; conditions: Homo sapiens, PC-3, PC-3; unit inferred
Procedure: as §1

[22] = test system: RL-95-2; test: Bioassay for apoptosis (apoptotic EC50); format: cell-based, human; conditions: Homo sapiens, RL95-2, RL-95-2; unit inferred
Procedure: as §1

[23] = MDA-MB-435, Table 1, read-out: EC50 for Apoptosis
[24] = Homo sapiens, MDA-MB-435, MDA-MB-435, unit inferred, read-out: apoptotic EC50

EC50 [3]: > 20 µg/mL | EC50 [4]: 20 to 30 µg/mL (≈ 40.9 to 61.4 µM) | EC50 [5]: 10 to 20 µg/mL (≈ 20.5 to 40.9 µM) | EC50 [6]: > 20 µg/mL | EC50 [7]: 10 to 20 µg/mL (≈ 20.5 to 40.9 µM) | EC50 [8]: 10 to 20 µg/mL (≈ 20.5 to 40.9 µM) | EC50 [9]: 10 to 20 µg/mL (≈ 20.5 to 40.9 µM) | EC50 [10]: 20 to 30 µg/mL (≈ 40.9 to 61.4 µM) | EC50 [12]: 10 to 20 µg/mL (≈ 20.5 to 40.9 µM)
Compound: Cc1c(C)c2c(c(C)c1OCC(=O)O)CC[C@@](C)(CCCC(C)CCCC(C)CCCC(C)C)O2 (stereo partly shown) [Compound 17]
EC50 [11]: > 20 µg/mL | growth inhibitory (apoptotic inducing) properties specific for human cancer cells [13]: effective

EC50 [3]: > 20 µg/mL | EC50 [4]: > 20 µg/mL | EC50 [5]: > 20 µg/mL | EC50 [6]: > 20 µg/mL | EC50 [7]: > 20 µg/mL | EC50 [9]: > 20 µg/mL | EC50 [1, 24]: > 20 µg/mL | EC50 [10]: > 20 µg/mL | EC50 [14]: > 20 µg/mL
Compound: CC(C)=CCC/C(C)=C/C=C/C(C)=C/[C@]1(C)CCc2c(C)c(OCC(=O)O)c(C)c(C)c2O1 [Compound 18]

EC50 ([15]; Homo sapiens, MCF7, 5% serum): 5 µM | EC50 ([16]; Homo sapiens): 2.5 µM | EC50 ([17]; Homo sapiens, MCF7, 72 h): 10 µM | EC50 ([18]; Homo sapiens, 72 h): 5.6 µM
Compound: CC(C)=CCC/C(C)=C/CC/C(C)=C/CC[C@]1(C)CCc2c(C)c(OCC(=O)O)c(C)c(C)c2O1 [Compound 44]
antitumor activity (DNA synthesis arrest) higher than alpha-tocotrienol ([16]; MDA-MB-435 and MCF-7): 8-12 fold | antitumor activity (DNA synthesis arrest) higher than compound 1 ([16]; MDA-MB-435 and MCF-7): 4-6 fold | antitumor activity (DNA synthesis arrest) higher than vitamin E succinate ([16]; MDA-MB-435 and MCF-7): 4-7 fold | induction of apoptosis higher than alpha tocotrienol ([18]; MDA-MB-435 and MCF-7): 4-12 fold | induction of apoptosis higher than compound 1 ([18]; MDA-MB-435 and MCF-7): 4-5 fold | induction of apoptosis higher than vitamin E succinate ([18]; MDA-MB-435 and MCF-7): 4-6 fold

Continued, compound first:

Compound: Cc1c(O)cc2c(c1C)O[C@](C)(CCC[C@H](C)CCC[C@H](C)CCCC(C)C)CC2 [γ-tocopherol, reference compound]
EC50 [1, 23]: 300 µM | EC50 [2]: > 400 µM

Compound: α-tocotrienol [reference compound]
EC50 [1, 23]: 50 µM | EC50 [2]: 40 µM | EC50 ([15]; 5% serum): 40 µM | EC50 [16]: 29 µM | EC50 [17]: 40 µM | EC50 [18]: 66 µM

Compound: CC(C)=CCC/C(C)=C/CC/C(C)=C/CC[C@]1(C)CCc2cc(O)cc(C)c2O1 [δ-tocotrienol, reference compound]
EC50 [1, 23]: 5 µM | EC50 [2]: 5 µM

Compound: CCCCCCCCCCCCCCCCC[C@]1(C)CCc2c(C)c(OCC(=O)O)c(C)c(C)c2O1 [Compound 25, 2,5,7,8-tetramethyl-(2R-(heptadecyl)chroman-6-yloxy)acetic acid]
EC50 [4]: > 20 µg/mL | EC50 [19]: > 20 µg/mL | EC50 [20]: 20 to 30 µg/mL (≈ 39.8 to 59.7 µM) | EC50 [6]: > 20 µg/mL | EC50 [8]: > 20 µg/mL | EC50 [9]: > 20 µg/mL | EC50 [1, 24]: > 20 µg/mL | EC50 [10]: > 20 µg/mL | EC50 [21]: 20 to 30 µg/mL (≈ 39.8 to 59.7 µM) | EC50 [22]: > 20 µg/mL | EC50 [11]: > 20 µg/mL | growth inhibitory (apoptotic inducing) properties specific for human cancer cells [13]: effective
